Earlier results as cited in patent US20060186374A1, “Hydrophobic propellant gas mixtures for producing insulating foams” (priority 2003, published 2006).

settings: octanol/water, decadic logarithm

SMILES	log PO/W
CC(F)(F)CC(F)(F)F [R365mfc, 1,1,1,3,3-pentafluorobutane]	1.6
CC(C)C [i-butane]	2.8
FC(F)CC(F)(F)F [R245fa, 1,1,1,3,3-pentafluoropropane]	1.35
CCC [Propane, propane]	2.3
COC [DME, dimethyl ether]	0.1
FC(C(F)(F)F)C(F)(F)F [R227ea, 1,1,1,2,3,3,3-heptafluoropropane]	2.5

More lines, now with the values ahead:

log PO/W	SMILES
1.06	FCC(F)(F)F [R134a, 1,1,1,2-tetrafluoroethane]
0.75	CC(F)F [R152a, 1,1-difluoroethane]
